Source: paper PMC6719014, “First-In-Class Inhibitors Targeting the Interaction between Bacterial RNA Polymerase and Sigma Initiation Factor Affect the Viability and Toxin Release of Streptococcus pneumoniae” (Molecules, 2019)

These compounds were tested against T1, RNAP CH-σ (B. subtilis RpoC clamp-helix domain and full-length SigA) (Bacillus subtilis, UniProt P37871) (assay: split-luciferase (NanoLuc) protein-protein interaction inhibition).
T1 construct: RpoC clamp-helix domain 220-315 with SmBiT NanoLuc tag (N-terminal, pCU252); full-length SigA with LgBiT NanoLuc tag (C-terminal, pCU251); purified recombinant; tags kept; with RNA polymerase sigma factor SigA
Type: biochemical
Description: split-luciferase (NanoLuc) protein-protein interaction inhibition on RNAP CH-σ (B. subtilis RpoC clamp-helix domain and full-length SigA)

In order of falling inhibition at 10 µM:
1. O=C(O)c1ccccc1C(=O)c1ccc(Sc2ccc(Cl)c(Cl)c2)c([N+](=O)[O-])c1 [C3-005, 2-(4-((3,4-Dichlorophenyl)thio)-3-nitrobenzoyl)benzoic Acid]  81.7 ± 0.9%
2. Nc1cccc(Sc2ccc(C(=O)c3ccccc3C(=O)O)cc2[N+](=O)[O-])c1 [C3-002, 2-(4-((3-Aminophenyl)thio)-3-nitrobenzoyl)benzoic Acid]  81.3 ± 4.9%
3. Nc1ccc(Sc2ccc(C(=O)c3ccccc3C(=O)O)cc2[N+](=O)[O-])cc1 [C3-003, 2-(4-((4-Aminophenyl)thio)-3-nitrobenzoyl)benzoic Acid]  69.1 ± 10.7%
4. Nc1ccccc1Sc1ccc(C(=O)c2ccccc2C(=O)O)cc1[N+](=O)[O-] [C3-001, 2-(4-((2-Aminophenyl)thio)-3-nitrobenzoyl)benzoic Acid]  62.2 ± 2.6%
5. Nc1cc(Cl)ccc1Sc1ccc(C(=O)c2ccccc2C(=O)O)cc1[N+](=O)[O-] [C3-004, 2-(4-((2-Amino-4-chlorophenyl)thio)-3-nitrobenzoyl)benzoic Acid]  60.5 ± 16.5%

Molecular target: T1, RNAP CH-σ (B. subtilis RpoC clamp-helix domain and full-length SigA)
Test: as above
Type: binding
Remark: another data set of the same source

`Nc1ccccc1Sc1ccc(C(=O)c2ccccc2C(=O)O)cc1[N+](=O)[O-]` [C3-001, 2-(4-((2-Aminophenyl)thio)-3-nitrobenzoyl)benzoic Acid] gave an IC50 of 6.4 ± 0.71 µM.
